Experimental data reported in BindingDB's records for doi:10.1002/cbic.201300347 (Fondazione Istituto Italiano Di Tecnologia, 2013).
Counter-ions that a name gives are not always drawn.

Biological target: T1, Fatty-acid amide hydrolase 1 [33-574] (Rattus norvegicus, UniProt P97612)
T1 construct: 33-574
T1 sequence (P97612 whole entry): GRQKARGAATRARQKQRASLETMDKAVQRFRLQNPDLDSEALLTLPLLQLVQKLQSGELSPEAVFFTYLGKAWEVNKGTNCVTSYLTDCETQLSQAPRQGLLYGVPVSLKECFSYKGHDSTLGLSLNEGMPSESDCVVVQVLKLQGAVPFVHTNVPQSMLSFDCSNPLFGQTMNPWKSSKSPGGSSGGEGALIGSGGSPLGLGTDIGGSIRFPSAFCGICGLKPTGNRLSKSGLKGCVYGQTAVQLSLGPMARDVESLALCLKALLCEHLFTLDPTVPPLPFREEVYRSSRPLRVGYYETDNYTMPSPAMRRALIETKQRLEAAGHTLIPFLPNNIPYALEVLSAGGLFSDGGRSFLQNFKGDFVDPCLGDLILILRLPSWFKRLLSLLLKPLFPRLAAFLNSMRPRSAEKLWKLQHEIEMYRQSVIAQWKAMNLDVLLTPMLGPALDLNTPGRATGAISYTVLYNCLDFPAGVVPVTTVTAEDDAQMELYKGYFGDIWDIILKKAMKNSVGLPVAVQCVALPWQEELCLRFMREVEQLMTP

SMILES	IC50 [µM]
Oc1cccc(C(F)(F)F)c1 [M‐trifluoromethylphenol (Hit 5)]	450
OC1(C(F)(F)F)CC(c2ccccc2)N=N1 (stereo unspecified) [5‐phenyl‐3‐(trifluoromethyl)‐2,4‐dihydropyrazol‐3‐ ol (Hit 6)]	32
O=C(O)C1(C(F)(F)F)CCC1 [1‐(trifluoromethyl)cyclobutane‐1‐carboxylic acid (Hit 9)]	465
N#CCc1cccc(C(F)(F)F)c1 [2‐[3‐(trifluoromethyl)phenyl]acetonitrile (Hit 13)]	720
O=C(O)c1cccnc1Nc1cccc(C(F)(F)F)c1 [NSC_4488]	162
O=C(Nc1cnc2[nH]ccc2c1)c1cccc(Cl)c1Cl [2,3‐dichloro‐N‐{1H‐pyrrolo[2,3‐b]pyridin‐5‐ yl}benzamide (Compound 2)]	0.095
Cc1ccc(OC(=O)NC2CCCCC2)cc1-c1cccc(C(N)=O)c1 [3‐(3‐carbamoylphenyl)‐4‐methylphenyl N‐ cyclohexylcarbamate (Compound 1)]	0.06
O[C@@H](c1ccccc1)C(F)(F)F [(1S)‐2,2,2‐trifluoro‐1‐phenylethanol (Hit 12)]	563
OC(c1ccc(Cl)cc1)C(F)(F)F (stereo unspecified) [1‐(4‐chlorophenyl)‐2,2,2‐trifluoroethanol (Hit 11)]	143
O=C1CCCc2c1cnc1nc(C(F)(F)F)nn21 [2‐(trifluoromethyl)‐7H,8H,9H‐[1,2,4]triazolo[1,5‐ a]quinazolin‐6‐one (Hit 2)]	3
NCc1cccc(C(F)(F)F)c1 [[3‐(trifluoromethyl)phenyl]methanamine (Hit 8)]	270
FC(F)(F)c1cc(-c2ccccc2)nc2ncnn12 [5‐phenyl‐7‐(trifluoromethyl)‐[1,2,4]triazolo[1,5‐ a]pyrimidine (Hit 15)]	110
FC(F)(F)c1ccccc1N1CCNCC1 [1‐[2‐(trifluoromethyl)phenyl]piperazine hydrochloride (Hit 1)]	4.2
O=C(O)Cn1ccc(C(F)(F)F)n1 [[3‐(trifluoromethyl)pyrazol‐1‐yl]acetic acid (Hit 7)]	147
NC(=O)c1cccc(-c2cc(OC(=O)NC3CCCCC3)ccc2C(=O)O)c1	4
CS(=O)(=O)c1ccc(N)c(F)c1 [2‐fluoro‐4‐methanesulfonylaniline (Hit 4)]	58
Nc1cccc(C(=O)Nc2cc(=O)n(CC(F)(F)F)[nH]2)c1 [3‐amino‐N‐[5‐hydroxy‐1‐(2,2,2‐ trifluoroethyl)pyrazol‐3‐yl]benzamide (Hit 18)]	1320
O=C(n1nc2ccccc2n1)C(F)(F)F [1‐(1,2,3‐benzotriazol‐2‐yl)‐2,2,2‐ trifluoroethanone (Hit 14)]	400
O=C(c1ccc(Cl)cc1)C(F)(F)F [1‐(4‐chlorophenyl)‐2,2,2‐trifluoroethanone (Hit 3)]	26
O=C(O)c1cc(=O)cc(C(F)(F)F)o1 [4‐oxo‐6‐(trifluoromethyl)pyran‐2‐carboxylic acid (Hit 10)]	137
Nc1nc(F)nc2c1ncn2C1O[C@H](CO)[C@@H](O)[C@H]1O (stereo partly drawn) [(3R,4S,5R)‐2‐(6‐amino‐2‐fluoropurin‐9‐yl)‐5‐ (hydroxymethyl)oxolane‐3,4‐diol (Hit 17)]	1130
